Data on 5 compounds can be found in patent US8105567B2, “Multidentate AZA ligands able to complex metal ions and the use thereof in diagnostics and therapy” (Bracco Imaging SpA, priority 2001, dated 2012).

Series [1] in a line: Potentiometric measurements: protonation constants of the ligand. The settings on record: 0.1 mol dm^−3 NMe4NO3, 298.1 K. The class given is physicochemical. The method, then: (§1) All the pH metric measurements (pH=−log [H^+]) were carried out in degassed 0.1 mol dm^−3 NMe4NO3 solutions, at 298.1 K, by using a Metrohm 670 Titroprocessor equipped with a Metrohm 6.0203.100 combined pH electrode. Prior to each potentiometric titration, the combined Metrohm electrode was calibrated as a hydrogen concentration probe by titrating known amounts of HCl with CO2-free NMe4OH solutions and determining the equivalent point by the Gran's method which allows to determine the standard potential E^o, and the ionic product of water. In the complexation experiments the metal ion concentration was about 80% of the ligand concentration. At least three measurements (about 100 data points each one) were performed for each system in the pH range 2.5-10.5 and the relevant e.m.f. data were treated by means of the computer programs […] and […] which furnished the protonation and the complexation constants.

Series [2] in a line: Potentiometric measurements: Gd complexation constant. In kind it is physicochemical. The method, then:
as §1

The nature of series [3]: Relaxivity of the Gd(III) complex. The class given is physicochemical. As to conditions: 25° C., pH 7 and 20 MHz. The method, then:
The relaxivity determined at 25° C., pH 7 and 20 MHz for said complex is 7.1 mM^−1 s^−1.

Series [4] in a line: Exchange time (tM) by transverse water 17O NMR relaxation time at variable temperature. The class given is physicochemical. The settings on record: 298 K. From the text:
The exchange time (tM) value of the Gd(III) complex of the example 1 has been assessed by measuring the transverse water ^17O NMR relaxation time at variable temperature according to the procedure described by Aime et al., in the above cited literature.
Obtained value turned out to be 90 ns at 298 K. Albeit the optimal value (about 30 ns) has not been attained, this exchange rate can be considered quite fast, especially if compared with that of (Gd-DO3A), the Gd(III) complex of reference, with two water molecules in the inner sphere, whose tM value is 160 ns.

Series [5] in a line: NMRD profile fitting (molecular reorientational time). The class given is physicochemical. The settings on record: calculated from fitting of the NMRD profile.
The nature of series [6]: Relaxivity as a function of the pH. In kind it is physicochemical. The settings on record: FIG. 3. From the text:
The relaxivity of this complex was further tested as a function of the pH.

Series [7] is described as follows: Affinity for lactate ions (titration of 1 mM Gd(III) complex, ternary complex formation). The class given is physicochemical. The settings on record: for KA (association constant) with lactate ions: titration with lactate ions. The method, then: (§2) A test, to further evaluate the lack of formation of ternary complexes was performed. As a non-limiting example, we measured the affinity of the compound of example 1 for lactate and phosphate ions. The determination was performed directly by adding increasing amounts of each anion to a 1 mM solution of the Gd(III) complex.
Conversely analogous titrations of Gd-DO3A and Gd-DO3MA (both endowed with q=2) with lactate ions yielded KA values of 150 M^−1 and 110 M^−1, respectively.

A short description of series [8]: Affinity for phosphate ions (titration of 1 mM Gd(III) complex, ternary complex formation). The class given is physicochemical. As to conditions: increasing amounts of anion added to 1 mM complex, FIG. 4. The method, then:
as §2

The next series deals with PC-3 tumors. The experiment in a line: Biodistribution and tumor targeting of 177Lu complexes in the human PC-3 nude mouse model. The settings on record: 177Lu complex. The class given is in vivo. The method, then:
For biodistribution studies, the radiolabeled compounds were prepared as described above except that a 1:1 molar ratio of ligand to Lutetium was used to guarantee complete chelation of all starting ligand. […] The remaining solution was further diluted to the required radioconcentration using Bacteriostatic saline/ASCOR L500® Ascorbic Acid Injection USP mixed in a 9 to 1 [v/v]) ratio.
10-50 μCi of the HPLC purified compounds were administered to each mouse by i.v. tail vein injection, n=4 per group. At 1 h, 1 and 7 days post injection, the mice were terminated and the organs and tissues were harvested. Radioactivity was assayed in a gamma counter. The data was expressed as percentage of the total administered radioactivity (% ID) for the urine combined with the bladder, as well as for the blood pool; and percentage of the total administered radioactivity per gram (% ID/g) for all the other tested organs

The conditions of series [9]: reference complex with two water molecules in the inner sphere; cited from earlier work.

Consider `CC1(N(CC(=O)O)CC(=O)O)CN(CC(=O)O)CCN(CC(=O)O)C1` [Example 1, 1,4-Bis(carboxymethyl)-6-[bis(carboxymethyl)amino]-6-methyl-perhydro-1,4-diazepine], for which the “Log KH” value is reported as 4.09 (3) in series [1] (H2L + H = H3L); 2.60 (3) in [1] (H3L + H = H4L); 1.44 (4) in [1] (H4L + H = H5L); 11.80 (2) in [1] (H + L = HL); 6.55 (2) in series [1] (HL + H = H2L).

Consider “Gd(III) Complex of 1,4-Bis(carboxymethylmethyl)-6-[bis(hydroxycarbonyl-methyl)amino]-6-methylperhydro-1,4-diazepine [Gd(III) complex of Example 1]”, for which, in series [2] (M + L = ML, 0.1 mol dm^−3 NMe4NO3, 298.1 K), the LogKGd is listed as 21.52 (1). The “LogKGd (conditional, pH 7.4)” value in series [2] (conditional, pH 7.4) is reported as “LogKGd (conditional, pH 7.4) = 17.06”. In series [3], this compound returned a relaxivity of 7.1 mM⁻¹ s⁻¹. Moreover, the “exchange time (tM)” value in series [4] is reported as 90 ns. Moreover, the “tR (molecular reorientational time)” value in [5] is listed as 80 ps. Further, the “relaxation rate over the investigated pH range” value in [6] was “substantially constant”. Further, the “interaction with lactate ions” value in series [7] (increasing amounts of anion added to 1 mM complex, FIG. 4) is given as “complete absence of interaction”. For the same compound, the “KA (association constant) with lactate ions” value (“KA (association constant)” below) in [7] was “does not show any measurable association constant”. For the same compound, in series [8], the “interaction with phosphate ions” value is recorded as “complete absence of interaction”.

In the case of `CC1(N(CC(=O)O)CC(=O)O)CN(CC(=O)O)[C@@H]2CCCC[C@H]2N(CC(=O)O)C1` [Compound 94], the “clearance of Lu-177 from the body (in words)” value in the series on PC-3 tumors (PC-3 nude mouse) is on record as “rapidly cleared from the body with little residual localization in any organs or tissue”. In the series on PC-3 tumors (i.v., 1 h post injection, blood), the “Blood 1 h % ID” value stood at 0.39 ± 0.29 % ID. In addition, in the series with PC-3 tumors (i.v., 24 h post injection, blood), the “Blood 24 h % ID” value is given as 0.01 ± 0.01 % ID. Besides, the “Blood 7 d % ID (*72 h timepoint)” value in the series on PC-3 tumors (i.v., 72 h timepoint, blood) amounted to 0.00 ± 0.00 % ID.

For the compound `CC(C(=O)[O-])N1CCNCCN(C(C)C(=O)[O-])CCN(C(C)C(=O)[O-])CC1.[Gd+3]` (stereo not drawn) [Gd-DO3MA, reference compound], in series [7], the “KA (association constant)” value came out at 110 M⁻¹.

Turning to `O=C([O-])CN1CCNCCN(CC(=O)[O-])CCN(CC(=O)[O-])CC1.[Gd+3]` [Gd-DO3A, reference compound], the “KA (association constant)” value in series [7] was 150 M⁻¹. Also, the “tM value (reference complex)” value in series [9] is reported as 160 ns.
